# Experimental data taken from patent US20250326713A1, “INHIBITORS OF MsbA AS ANTIBIOTICS, PHARMACEUTICAL COMPOSITIONS, AND USES THEREOF” (priority 2022, published 2025).
# Test system: various strains of bacteria
# Assay: Antimicrobial potency: bacterial growth inhibition by OD600 (Antibacterial assay 1, MITC95)
# Type: cell-based, A. baumannii
# Settings: Acinetobacter baumannii, 20 h, lowest concentration giving >95% growth inhibition, CAMHB, 18-22 h
# How it was run: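 Compounds were two-fold serially diluted in DMSO (2% final) against approx. 2×10^5 cfu/mL inocula in CAMHB and incubated at 35+2degC for 18-22 h. Growth was read as OD600, and MITC95 was taken as the lowest concentration giving >95% growth inhibition.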
row,SMILES,MIC [µM]
1,O=C(O)c1cc(NCC2CC(NCc3ccc(NS(=O)(=O)N4CC(Oc5ccc(F)cc5)C4)c(C(=O)O)c3)C2)ccc1NS(=O)(=O)c1cnn(-c2ccc(F)cc2)c1 (centres unmarked) [Compound 28],0.196
2,Cn1nc(-c2ccc(F)cc2)cc1S(=O)(=O)Nc1ccc(CNC2CC(CNc3ccc(NS(=O)(=O)c4cnn(-c5ccc(Cl)cc5)c4)c(C(=O)O)c3)C2)cc1C(=O)O (centres unmarked) [Compound 34],0.0489
3,O=C(O)c1cc(COC2CC(OCc3ccc(NS(=O)(=O)c4ccc(-c5ccc(F)cc5)cc4)c(C(=O)O)c3)C2)ccc1NS(=O)(=O)c1ccc(-c2ccc(F)cc2)cc1 (centres unmarked) [Compound 14],0.0245
4,O=C(O)c1cc(OC2CN(Cc3ccc(NS(=O)(=O)N4CCOC(c5ccc(F)cc5)C4)c(C(=O)O)c3)C2)ccc1NS(=O)(=O)N1CCOC(CCO)C1 (centres unmarked) [Compound 47],1.57

# Further lines, results first:
row,MIC [µM],SMILES
1,0.0173,Cn1nc(-c2ccc(F)cc2)cc1S(=O)(=O)Nc1ccc(CN[C@H]2C[C@@H](COc3ccc(NS(=O)(=O)c4cnn(-c5ccc(Cl)cc5)c4)c(C(=O)O)c3)C2)cc1C(=O)O [Compound 91]
2,0.0978,O=C(CCCc1ccccc1)Nc1ccc(OC2CN(Cc3ccc(NS(=O)(=O)c4cnn(-c5ccc(Cl)cc5)c4)c(C(=O)O)c3)C2)cc1C(=O)O [Compound 72]
3,0.0489,Cn1nc(-c2ccccc2)cc1S(=O)(=O)Nc1ccc(CN2CC(Oc3ccc(NS(=O)(=O)c4ccc(-c5ccc(Cl)cc5)cc4)c(C(=O)O)c3)C2)cc1C(=O)O [Compound 106]
4,0.553,"CS(=O)(=O)NC(=O)c1cc(OC2CN(Cc3ccc(NS(=O)(=O)c4cnn(-c5ccc(F)cc5)c4)c(C(=O)O)c3)C2)ccc1NS(=O)(=O)c1cnn(-c2ccc(F)cc2)c1 [Compound 52, 2-((1-(4-fluorophenyl)-1H-pyrazole)-4-sulfonamido)-5-((3-(4-((1-(4-fluorophenyl)-1H-pyrazole)-4-sulfonamido)-3-((methylsulfonyl)carbamoyl)phenoxy)azetidin-1-yl)methyl)benzoic acid]"
